The record followed here is PubChem BioAssay (NCI).

The structures appear in SMILES notation.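 How tested: cells in 96-well plates exposed to compound for 48 hours at five concentrations. TGI marks complete inhibition of growth.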

Common to all, as to assay: NCI anticancer screen, dose series, 48 h
For experiment [1], the system named is TK-10 renal.
Experiment [2] relates to MDA-N.
For experiment [3], the system named is ACHN renal.
Experiment [4] concerns MDA-MB-435.
In experiment [5] the test system is NCI-H522 lung.
The subject of experiment [6] is RPMI-8226 leukemia.
Experiment [7] relates to CAKI-1 renal.
The test system of experiment [8] is COLO 205 colon.
Experiment [9] deals with SR leukemia.
Experiment [10] has as its system CCRF-CEM leukemia.

Consider `COC(=O)/C=C/c1ccc2c(c1)CC1(C2)Cc2cc3c(cc2C1=O)CCC3` (stereo not given), for which the TGI in [1], in experiment [2], in [3], in experiment [4], in experiment [5] and in experiment [6] was over 100 µM throughout. Also, the TGI in experiment [7], in [8], in [9] and in [10] was over 100 µM throughout.

Turning to `CCCCNC(=S)Nc1nc(C(=O)NNC(=S)NC2CCCCC2)cs1`, the TGI in [1], in experiment [2], in experiment [3], in [4], in experiment [5] and in experiment [6] was over 100 µM throughout. The TGI in experiment [7] was over 100 µM; in [8], over 100 µM; in experiment [9] it was 35.4 µM; in experiment [10], over 100 µM.

As to `Cc1cc(Cc2c(F)c(F)c(C(c3cc(C)no3)c3c(F)c(F)c(F)c(F)c3F)c(F)c2F)on1` (stereo not given), the TGI in experiment [1] was over 100 µM; in [2] it was 15.1 µM; in [3], over 100 µM; in [4] it was over 41.9 µM; in experiment [5], over 100 µM; in experiment [6], over 100 µM. Further, the TGI in experiment [7], in [8], in experiment [9] and in [10] was over 100 µM throughout.

With `CSCCCNC(=O)c1csc(-c2csc(C(CNC(=O)OC(C)(C)C)CNC(=O)OC(C)(C)C)n2)n1`, the TGI is over 100 µM in [1]; over 100 µM in experiment [2]; over 100 µM in [3]; over 100 µM in experiment [4]; 94.5 µM in [5]; 41.7 µM in [6]. The TGI in [7] is over 100 µM; in experiment [8], over 100 µM; in experiment [9], 70.1 µM; in experiment [10], 44 µM.

Regarding `O=C1CCCC/C1=C\c1ccc(Br)cc1`, the TGI in experiment [1] was determined as 30.9 µM; in experiment [2], 38.3 µM; in experiment [3], 9.18 µM; in experiment [4] it was 30.6 µM; in experiment [5] it was 31.1 µM; in [6] it was 57.3 µM. Besides, the TGI in experiment [7] is 32.1 µM; in [8], 32.8 µM; in [9], over 100 µM; in [10] it was 94.4 µM.

For the compound `CCOC(=O)C1OC(C2(C)OC3(OC4(C=CC3O)OC(C(C)C(=O)C(C)C(O)C(C)CC(C)c3c(Cl)cc(C)c(O)c3C(=O)O)C(C)CC4C)C(C)C2OC)CC1O` (stereo not given), the TGI in [1] was 7.81 µM; in experiment [2], 4.76 µM; in [3] it was 6.78 µM; in experiment [4] it was 1.22 µM; in experiment [5] it was 0.434 µM; in experiment [6], over 14.7 µM. In addition, the TGI amounted to 10.4 µM in experiment [7], 2.08 µM in experiment [8], 4.53 µM in experiment [9] and 1.04 µM in experiment [10].

As to `CCCCN1C(=O)c2c(-c3sccc3N)sc(-c3sccc3N)c2C1=O`, the TGI in [1] is 72.5 µM; in experiment [2], over 34.6 µM; in experiment [3] it was over 100 µM; in experiment [4] it was over 100 µM; in [5], over 100 µM; in [6], 55 µM. Further, the TGI in [7] is over 100 µM; in experiment [8], over 46.7 µM; in experiment [9] it was over 23.1 µM; in [10] it was over 31 µM.

Take `COC(=O)C1CCC(=O)N1C(c1ccc(OC)cc1)c1ccc(OC)cc1` (stereo not given): the TGI in experiment [1], in [2], in [3], in experiment [4], in [5] and in experiment [6] was over 100 µM throughout. In addition, the TGI in [7], in experiment [8], in [9] and in [10] was over 100 µM throughout.

Regarding `CC(=C(C(N)=O)C(N)=O)C1C=C(c2cccs2)CC(c2ccc(Cl)cc2)=C1O` (stereo not given), the TGI in experiment [1], in [2], in experiment [3], in experiment [4], in experiment [5] and in [6] was over 100 µM each time. Also, the TGI is over 100 µM in experiment [7], over 100 µM in experiment [8], 81.6 µM in experiment [9] and 79.4 µM in [10].

Take `C#CC1(O)C(COP(=O)(O)OCC2OC(n3ccc(NCCCCCCCCCCCCCCCCCC)nc3=O)C(O)C2O)OC(n2ccc(N)nc2=O)C1O` (stereo not given): the TGI was 19.1 µM in experiment [1]; 70.6 µM in experiment [2]; over 53.3 µM in [3]; 7.57 µM in experiment [4]; 0.773 µM in experiment [5]; over 73.8 µM in experiment [6]. The TGI was 6.77 µM in [7], over 32.9 µM in [8], 11.7 µM in experiment [9] and over 100 µM in [10].

For `CC(C)(C)c1cc(C2=NN(c3ccccc3)C(c3ccccc3)C2)cc(C(C)(C)C)c1O` (stereo not given), the TGI in experiment [1], in experiment [2], in experiment [3], in [4], in [5] and in experiment [6] was over 100 µM each time. Besides, the TGI in experiment [7], in [8], in [9] and in [10] was over 100 µM in each case.

Turning to `Cc1ccc(O)c(-c2cc(-c3cccc(Cl)c3)c(C#N)c(N)n2)c1`, the TGI is 44.6 µM in experiment [1]; 37.8 µM in [2]; 42.1 µM in experiment [3]; 34.3 µM in [4]; 30 µM in [5]; 48.4 µM in [6]. Besides, the TGI was over 100 µM in experiment [7], 32.3 µM in experiment [8], 30.3 µM in experiment [9] and 55.2 µM in experiment [10].
